Experimental data reported in patent EP0084597A1, “Triazole and imidazole derivatives and pharmaceutical preparations containing them” (BAYER AG, priority 1981, dated 1983).
Converted amounts (≈) assume the structure as drawn.

Key:
Trichophyton mentagr. = assay: Antimycotic in-vitro activity, serial dilution test (MIC); format: cell-based, Trichophyton mentagrophytes; conditions: Sabouraud medium, 20°C, 96 hours, inoculum 5 x 10^4 germs/ml; for MIC: Trichophyton, read-out: MHK-Werte in γ/ml Nährmedium, Trichophyton mentagr.
Method: (§1) Die in-vitro-Prüfungen wurden im Reihenverdünnungstest mit Keiminokula von durchschnittlich 5 x 10^4 Keimen/ml Substrat durchgeführt. Als Nährmedium dienten • a) für Dermatophyten und Schimmelpilze: Sabourand's milieu d'epreuve • b) für Hefen: Fleischextrakt-Traubenzucker-Bouillon.
(§2) Die Bebrütungstemperatur betrug 20°C, die Bebrütungsdauer lag bei 24 bis 96 Stunden bei Hefen und 96 Stunden bei Dermatophyten und Schimmelpilzen.

Candida albicans = assay: as above; format: cell-based; conditions: meat extract-glucose broth, 20°C, 24 to 96 hours, inoculum 5 x 10^4 germs/ml; for MIC: Candida albicans, read-out: MHK-Werte in γ/ml Nährmedium, Candida albicans
Method: as §1, §2

Microsporum canis = assay: as above; format: cell-based; conditions: Sabouraud medium, 20°C, inoculum 5 x 10^4 germs/ml; for MHK-Werte in γ/ml Nährmedium, Microsporum canis: 96 hours; for MIC: Microsporum canis, 96 h, read-out: MHK-Werte in γ/ml Nährmedium, Microsporum canis
Method: as §1, §2

Torulopsis glabrata = assay: as above; format: cell-based; conditions: meat extract-glucose broth, 20°C, 24 to 96 hours, inoculum 5 x 10^4 germs/ml; for MIC: Nakaseomyces glabratus, read-out: MHK-Werte in γ/ml Nährmedium, Torulopsis glabrata
Method: as §1, §2

Candida-Zellen = assay: Antimycotic in-vivo activity (oral) in mouse candidosis; set-up: species or system Mäuse vom Typ SPF-CF1; key: +++++: sehr gute Wirkung = 90 % Ueberlebende am 6.Tag p.i.; ++++: gute Wirkung = 80 % Ueberlebende am 6.Tag p.i.; +++: Wirkung = 60 % Ueberlebende am 6.Tag p.i.; ++: schwache Wirkung = 40 % Ueberlebende am 6.Tag p.i.; +: Spur Wirkung; k.W.: keine Wirkung
Method: Mäuse vom Typ SPF-CF1 wurden intravenös mit 1 - 2 x 10^6 logarithmisch wachsenden Candida-Zellen, die in physiologischer Kochsalzlösung suspendiert werden, infiziert. Eine Stunde vor und sieben Stunden nach der Infektion werden die Tiere mit jeweils 50 - 100 mg/kg Körpergewicht der Präparate oral behandelt.
Uhbehandelte Tiere starben 3 bis 6 Tage post infektionem. Die Ueberlebensrate am 6.Tag post infektionem betrug bei uhbehandelten Kontrolltieren etwa 5 %.
• +++++ = sehr gute Wirkung = 90 % Ueberlebende am 6.Tag p.i. • ++++ = gute Wirkung = 80 % Ueberlebende am 6.Tag p.i. • +++ = Wirkung = 60 % Ueberlebende am 6.Tag p.i. • ++ = schwache Wirkung = 40 % Ueberlebende am 6.Tag p.i. • + = Spur Wirkung = k.W. = keine Wirkung

[1] = test system: Dermatophyten und Schimmelpilze, Hefen; assay: Antimycotic in-vitro activity, serial dilution test, overall comparison with known compounds; format: cell-based; conditions: compared with known compounds (A),(B),(C) and (D)
Method: as §1, §2

Aspergillus fumig. = assay: Antimycotic in-vitro activity, serial dilution test (MIC); format: cell-based, Aspergillus fumigatus; conditions: Sabouraud medium, 20°C, inoculum 5 x 10^4 germs/ml; for MIC: Aspergillus, 96 h, read-out: MHK-Werte in γ/ml Nährmedium, Aspergillus fumig.
Method: as §1, §2

[2] = mice infected i.v. with 1 - 2 x 10^6 Candida cells, oral 50 - 100 mg/kg one hour before and seven hours after infection, survivors on day 6 p.i.
[3] = mouse candidosis, oral, compared with known compounds (A), (B), (C) and (D)

Compound	MIC (Trichophyton mentagr.)	MIC (Candida albicans)	MIC (Aspergillus fumig.)	MIC (Microsporum canis)	MIC (Torulopsis glabrata)	MHK-Werte in γ/ml Nährmedium, Microsporum canis (Microsporum canis)	MHK-Werte in γ/ml Nährmedium, Torulopsis glabrata (Torulopsis glabrata)	Wirkung (Candida-Zellen; [2])	Wirkung (Candida-Zellen; [3])	antimykotische Wirkung [1]	MHK-Werte in γ/ml Nährmedium, Trichophyton mentagr. (Trichophyton mentagr.)	MHK-Werte in γ/ml Nährmedium, Candida albicans (Candida albicans)	MHK-Werte in γ/ml Nährmedium, Aspergillus fumig. (Aspergillus fumig.; 96 hours)
CCCCC(C(O)c1ccc(Oc2ccc(Cl)cc2)cc1)n1cncn1 (single isomer, unassigned) [Beispiel 34]	–	–	–	–	–	32 µg/mL	>64 µg/mL	–	–	bessere antimykotische Wirkung	<1 µg/mL	<1 µg/mL	32 µg/mL
CC(C(=O)c1ccccc1)n1cncn1 (centres unmarked) [(A), reference compound]	> 64 µg/mL	> 64 µg/mL	–	–	–	–	–	k.W.	–	–	–	–	–
O=C(Cn1cncn1)c1ccc(-c2ccccc2)cc1 [(B), reference compound]	4 µg/mL (≈ 15.2 µM)	> 64 µg/mL	> 64 µg/mL	> 64 µg/mL	–	–	–	k.W.	–	–	–	–	–
CC(C(O)c1ccc(Cl)cc1)n1cncn1 (centres unmarked) [(C), reference compound]	> 64 µg/mL	> 64 µg/mL	–	–	–	–	–	k.W.	–	–	–	–	–
OC(Cn1cncn1)c1ccc(-c2ccc(Cl)cc2)cc1 (centres unmarked) [(D), reference compound]	4 µg/mL (≈ 13.3 µM)	> 64 µg/mL	> 64 µg/mL	> 64 µg/mL	–	–	–	k.W.	–	–	–	–	–
CCC(C(=O)c1ccc(Oc2ccc(Cl)cc2)cc1)n1cncn1 (centres unmarked) [Beispiel 7]	4 µg/mL (≈ 11.7 µM)	16 µg/mL (≈ 46.8 µM)	32 µg/mL (≈ 93.6 µM)	2 µg/mL (≈ 5.85 µM)	64 µg/mL (≈ 187 µM)	–	–	–	–	bessere antimykotische Wirkung	–	–	–
CC(C(=O)c1ccc(Oc2ccc(Cl)cc2)cc1)n1cncn1 (centres unmarked) [Beispiel 9]	2 µg/mL (≈ 6.1 µM)	8 µg/mL (≈ 24.4 µM)	8 µg/mL (≈ 24.4 µM)	4 µg/mL (≈ 12.2 µM)	16 µg/mL (≈ 48.8 µM)	–	–	+++ (Wirkung = 60 % Ueberlebende am 6.Tag p.i.)	bessere Wirkung	bessere antimykotische Wirkung	–	–	–
CC(C)C(C(=O)c1ccc(Oc2ccc(Cl)cc2)cc1)n1cncn1 (centres unmarked) [Beispiel 13]	4 µg/mL (≈ 11.2 µM)	64 µg/mL (≈ 180 µM)	8 µg/mL (≈ 22.5 µM)	8 µg/mL (≈ 22.5 µM)	–	–	–	–	–	bessere antimykotische Wirkung	–	–	–
CC(C)C(C(=O)c1ccc(Oc2ccc(Cl)cc2)cc1)n1ccnc1 (centres unmarked) [Beispiel 28]	< 1 µg/mL	< 1 µg/mL	< 1 µg/mL	2 µg/mL (≈ 5.64 µM)	2 µg/mL (≈ 5.64 µM)	–	–	–	–	bessere antimykotische Wirkung	–	–	–
CC=CCC(C(O)c1ccc(Oc2ccc(Cl)cc2)cc1)n1cncn1 (centres unmarked) [Beispiel 37]	4 µg/mL (≈ 10.8 µM)	< 1 µg/mL	32 µg/mL (≈ 86.5 µM)	4 µg/mL (≈ 10.8 µM)	2 µg/mL (≈ 5.41 µM)	–	–	–	–	bessere antimykotische Wirkung	–	–	–
CCCC=CC(C(O)c1ccc(Oc2ccc(Cl)cc2)cc1)n1cncn1 (centres unmarked) [Beispiel 38]	< 1 µg/mL	8 µg/mL (≈ 20.8 µM)	32 µg/mL (≈ 83.4 µM)	8 µg/mL (≈ 20.8 µM)	64 µg/mL (≈ 167 µM)	–	–	–	–	bessere antimykotische Wirkung	–	–	–
CCCC(C(O)c1ccc(Oc2ccc(Cl)cc2Cl)cc1)n1cncn1 (centres unmarked) [Beispiel 40]	< 1 µg/mL	< 1 µg/mL	> 64 µg/mL	8 µg/mL (≈ 20.4 µM)	< 1 µg/mL	–	–	–	–	bessere antimykotische Wirkung	–	–	–
CC(C(O)c1ccc(Oc2ccc(Cl)cc2Cl)cc1)n1cncn1 (centres unmarked) [Beispiel 41]	4 µg/mL (≈ 11 µM)	< 1 µg/mL	32 µg/mL (≈ 87.9 µM)	16 µg/mL (≈ 43.9 µM)	8 µg/mL (≈ 22 µM)	–	–	–	–	bessere antimykotische Wirkung	–	–	–
CC(n1cncn1)C(C)(O)c1ccc(Oc2ccc(Cl)cc2)cc1 (centres unmarked) [Beispiel 44]	< 1 µg/mL	< 1 µg/mL	> 64 µg/mL	32 µg/mL (≈ 93.1 µM)	> 64 µg/mL	–	–	–	–	bessere antimykotische Wirkung	–	–	–
OC(Cn1cncn1)c1ccc(Oc2ccc(Cl)cc2Cl)cc1 (centres unmarked) [Beispiel 48]	< 1 µg/mL	< 1 µg/mL	16 µg/mL (≈ 45.7 µM)	4 µg/mL (≈ 11.4 µM)	2 µg/mL (≈ 5.71 µM)	–	–	–	–	bessere antimykotische Wirkung	–	–	–
OC(Cn1cncn1)c1ccc(Oc2ccc(Cl)cc2)cc1 (centres unmarked) [Beispiel 49]	< 1 µg/mL	< 1 µg/mL	16 µg/mL (≈ 50.7 µM)	4 µg/mL (≈ 12.7 µM)	16 µg/mL (≈ 50.7 µM)	–	–	–	–	bessere antimykotische Wirkung	–	–	–

Second part, led by results:

MIC (Trichophyton mentagr.)	MIC (Candida albicans)	MIC (Aspergillus fumig.)	MIC (Microsporum canis)	MIC (Torulopsis glabrata)	Compound	MHK-Werte in γ/ml Nährmedium, Microsporum canis (Microsporum canis)	MHK-Werte in γ/ml Nährmedium, Torulopsis glabrata (Torulopsis glabrata)	Wirkung (Candida-Zellen; [2])	Wirkung (Candida-Zellen; [3])	antimykotische Wirkung [1]	MHK-Werte in γ/ml Nährmedium, Trichophyton mentagr. (Trichophyton mentagr.)	MHK-Werte in γ/ml Nährmedium, Candida albicans (Candida albicans)	MHK-Werte in γ/ml Nährmedium, Aspergillus fumig. (Aspergillus fumig.; 96 hours)
< 1 µg/mL	< 1 µg/mL	64 µg/mL (≈ 172 µM)	–	–	CCCCC(C(O)c1ccc(Oc2ccc(Cl)cc2)cc1)n1cncn1 (single isomer, unassigned) [Beispiel 33]	8 µg/mL	<1 µg/mL	+++++ (sehr gute Wirkung = 90 % Ueberlebende am 6.Tag p.i.)	bessere Wirkung	bessere antimykotische Wirkung	–	–	–
< 1 µg/mL	< 1 µg/mL	< 1 µg/mL	8 µg/mL (≈ 22.5 µM)	< 1 µg/mL	CCCC(C(=O)c1ccc(Oc2ccc(Cl)cc2)cc1)n1ccnc1 (centres unmarked) [Beispiel 25]	–	–	–	–	bessere antimykotische Wirkung	–	–	–
8 µg/mL (≈ 24.5 µM)	4 µg/mL (≈ 12.2 µM)	16 µg/mL (≈ 49 µM)	–	16 µg/mL (≈ 49 µM)	CC(C(=O)c1ccc(Oc2ccc(Cl)cc2)cc1)n1ccnc1 (centres unmarked) [Beispiel 26]	–	–	+	bessere Wirkung	bessere antimykotische Wirkung	–	–	–
< 1 µg/mL	< 1 µg/mL	< 1 µg/mL	< 1 µg/mL	< 1 µg/mL	CCCCC(C(=O)c1ccc(Oc2ccc(Cl)cc2)cc1)n1ccnc1 (centres unmarked) [Beispiel 27]	–	–	–	–	bessere antimykotische Wirkung	–	–	–
< 1 µg/mL	4 µg/mL (≈ 9.66 µM)	64 µg/mL (≈ 155 µM)	32 µg/mL (≈ 77.3 µM)	16 µg/mL (≈ 38.7 µM)	CCCCCCCC(C(O)c1ccc(Oc2ccc(Cl)cc2)cc1)n1cncn1 (centres unmarked) [Beispiel 36]	–	–	–	–	bessere antimykotische Wirkung	–	–	–
4 µg/mL (≈ 10.7 µM)	< 1 µg/mL	16 µg/mL (≈ 42.8 µM)	16 µg/mL (≈ 42.8 µM)	4 µg/mL (≈ 10.7 µM)	COCCC(C(O)c1ccc(Oc2ccc(Cl)cc2)cc1)n1cncn1 (centres unmarked) [Beispiel 39]	–	–	–	–	bessere antimykotische Wirkung	–	–	–
4 µg/mL (≈ 12.4 µM)	< 1 µg/mL	32 µg/mL (≈ 99.3 µM)	16 µg/mL (≈ 49.6 µM)	32 µg/mL (≈ 99.3 µM)	CCCC(C(O)c1ccc(Oc2ccccc2)cc1)n1ccnc1 (centres unmarked) [Beispiel 68]	–	–	–	–	bessere antimykotische Wirkung	–	–	–
2 µg/mL (≈ 5.83 µM)	< 1 µg/mL	16 µg/mL (≈ 46.7 µM)	8 µg/mL (≈ 23.3 µM)	< 1 µg/mL	CCC(C(O)c1ccc(Oc2ccc(Cl)cc2)cc1)n1ccnc1 (centres unmarked) [Beispiel 70]	–	–	+	bessere Wirkung	bessere antimykotische Wirkung	–	–	–
8 µg/mL (≈ 24.3 µM)	< 1 µg/mL	16 µg/mL (≈ 48.7 µM)	–	2 µg/mL (≈ 6.08 µM)	CC(C(O)c1ccc(Oc2ccc(Cl)cc2)cc1)n1ccnc1 (centres unmarked) [Beispiel 71]	–	–	+++ (Wirkung = 60 % Ueberlebende am 6.Tag p.i.)	bessere Wirkung	bessere antimykotische Wirkung	–	–	–
< 1 µg/mL	< 1 µg/mL	32 µg/mL (≈ 86.3 µM)	8 µg/mL (≈ 21.6 µM)	2 µg/mL (≈ 5.39 µM)	CCCCC(C(O)c1ccc(Oc2ccc(Cl)cc2)cc1)n1ccnc1 (centres unmarked) [Beispiel 72]	–	–	–	–	bessere antimykotische Wirkung	–	–	–
4 µg/mL (≈ 11.2 µM)	4 µg/mL (≈ 11.2 µM)	64 µg/mL (≈ 179 µM)	16 µg/mL (≈ 44.8 µM)	2 µg/mL (≈ 5.6 µM)	CC(C)C(C(O)c1ccc(Oc2ccc(Cl)cc2)cc1)n1ccnc1 (centres unmarked) [Beispiel 73]	–	–	–	–	bessere antimykotische Wirkung	–	–	–
< 1 µg/mL	< 1 µg/mL	64 µg/mL (≈ 179 µM)	8 µg/mL (≈ 22.4 µM)	< 1 µg/mL	CCCC(C(O)c1ccc(Oc2ccc(Cl)cc2)cc1)n1ccnc1 (centres unmarked) [Beispiel 74]	–	–	–	–	bessere antimykotische Wirkung	–	–	–
